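Each compound was tested at five concentrations against cells in 96-well plates for 48 hours. Here, GI50 denotes the concentration required for 50% inhibition of growth. TGI marks complete inhibition of growth.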
Assays:
Test in all cases: growth of human tumour cells (NCI), 48 h
[1] = tested on: HOP-62 NSCLC
[2] = tested on: SF-295 CNS
[3] = tested on: MCF7 breast
[4] = tested on: 786-0 renal
[5] = tested on: NCI-H522 lung
[6] = tested on: NCI-H23 lung
[7] = tested on: RPMI-8226 leukemia
[8] = tested on: PC-3 prostate
[9] = tested on: NCI/ADR-RES ovarian
[10] = tested on: SK-MEL-5 melanoma
[11] = tested on: LOX IMVI melanoma
[12] = tested on: NCI-H460 lung
[13] = tested on: ACHN renal
[14] = tested on: HL-60(TB) leukemia
[15] = tested on: MDA-MB-231 breast
[16] = tested on: IGROV1 ovarian
[17] = tested on: HCT-15 colon
[18] = tested on: UACC-62 melanoma
[19] = tested on: SK-MEL-2 melanoma
[20] = tested on: COLO 205 colon
[21] = tested on: SNB-19 CNS
[22] = tested on: MDA-MB-435
[23] = tested on: OVCAR-8 ovarian
[24] = tested on: TK-10 renal
[25] = tested on: CAKI-1 renal
[26] = tested on: OVCAR-5 ovarian
[27] = tested on: HT29 colon
[28] = tested on: K-562 leukemia
[29] = tested on: UACC-257 melanoma
[30] = tested on: EKVX NSCLC
[31] = tested on: BT-549 breast
[32] = tested on: SK-OV-3 ovarian
[33] = tested on: MOLT-4 leukemia
[34] = tested on: SF-539 CNS
[35] = tested on: RXF 393 renal
[36] = tested on: HS 578T breast
[37] = tested on: M14 melanoma
[38] = tested on: KM12 colon
[39] = tested on: DU-145 prostate
[40] = tested on: NCI-H226 lung
[41] = tested on: SF-268 CNS
[42] = tested on: HCT-116 colon
[43] = tested on: U251 CNS
[44] = tested on: UO-31 renal
[45] = tested on: SN12C renal
[46] = tested on: HOP-92 NSCLC
[47] = tested on: OVCAR-3 ovarian
[48] = tested on: A498 renal
[49] = tested on: T-47D breast
[50] = tested on: SW-620 colon
[51] = tested on: A549 NSCLC
[52] = tested on: HCC-2998 colon
[53] = tested on: SNB-75 CNS
[54] = tested on: MALME-3M melanoma
[55] = tested on: CCRF-CEM leukemia
[56] = tested on: OVCAR-4 ovarian

With Cc1ccc(-n2c3c(c4c(CN5CCOCC5)c(O)ccc42)CCc2ccccc2C3=O)cc1 the GI50 [1] was over 100 µM, the TGI [1] was over 100 µM and the GI50 [2] was over 100 µM. It also gave a TGI [2] of over 100 µM, a GI50 [3] of over 100 µM and a TGI [3] of over 100 µM. It also gave a GI50 [4] of 91.5 µM, a TGI [4] of over 100 µM and a GI50 [5] of 34.5 µM. The TGI [5] was over 100 µM, the GI50 [6] was over 100 µM and the TGI [6] was over 100 µM. For the same molecule, the GI50 [7] was 21 µM, the TGI [7] was over 100 µM and the GI50 [8] was 42.4 µM. For the same molecule, the TGI [8] was over 100 µM, the GI50 [9] was 39.1 µM and the TGI [9] was over 100 µM. For the same molecule, the GI50 [10] was 76 µM, the TGI [10] was over 100 µM and the GI50 [11] was over 100 µM. The TGI [11] was over 100 µM, the GI50 [12] was 65.8 µM and the TGI [12] was over 100 µM. It also gave a GI50 [13] of over 100 µM, a TGI [13] of over 100 µM and a GI50 [14] of 19.9 µM. For the same molecule, the TGI [14] was 92.2 µM, the GI50 [15] was 37.8 µM and the TGI [15] was over 100 µM. For the same molecule, the GI50 [16] was 23.3 µM, the TGI [16] was over 100 µM and the GI50 [17] was over 100 µM. For the same molecule, the TGI [17] was over 100 µM, the GI50 [18] was over 100 µM and the TGI [18] was over 100 µM. The GI50 [19] was over 100 µM, the TGI [19] was over 100 µM and the GI50 [20] was over 100 µM. For the same molecule, the TGI [20] was over 100 µM, the GI50 [21] was over 100 µM and the TGI [21] was over 100 µM. It also gave a GI50 [22] of 29.6 µM, a TGI [22] of over 100 µM and a GI50 [23] of 90.7 µM. The TGI [23] was over 100 µM, the GI50 [24] was over 100 µM and the TGI [24] was over 100 µM. It also gave a GI50 [25] of 94.1 µM, a TGI [25] of over 100 µM and a GI50 [26] of over 100 µM. The TGI [26] was over 100 µM, the TGI [27] was 0.241 µM and the GI50 [28] was 25.8 µM. The TGI [28] was over 100 µM, the GI50 [29] was over 100 µM and the TGI [29] was over 100 µM. It also gave a GI50 [30] of over 100 µM, a TGI [30] of over 100 µM and a GI50 [31] of 33.8 µM. It also gave a TGI [31] of over 100 µM, a GI50 [32] of over 100 µM and a TGI [32] of over 100 µM. It also gave a GI50 [33] of 35.1 µM, a TGI [33] of over 100 µM and a GI50 [34] of over 100 µM. The TGI [34] was over 100 µM, the GI50 [35] was 25.9 µM and the TGI [35] was over 100 µM. For the same molecule, the GI50 [36] was over 100 µM, the TGI [36] was over 100 µM and the GI50 [37] was over 100 µM. The TGI [37] was over 100 µM, the GI50 [38] was over 100 µM and the TGI [38] was over 100 µM. It also gave a GI50 [39] of over 100 µM, a TGI [39] of over 100 µM and a GI50 [40] of 78.1 µM. The TGI [40] was over 100 µM, the GI50 [41] was 73.7 µM and the TGI [41] was over 100 µM. For the same molecule, the GI50 [42] was over 100 µM, the TGI [42] was over 100 µM and the GI50 [43] was over 100 µM. For the same molecule, the TGI [43] was over 100 µM, the GI50 [44] was over 100 µM and the TGI [44] was over 100 µM. The GI50 [45] was 46.9 µM, the TGI [45] was over 100 µM and the GI50 [46] was 68.2 µM. For the same molecule, the TGI [46] was over 100 µM, the GI50 [47] was 71.2 µM and the TGI [47] was over 100 µM. For the same molecule, the GI50 [48] was over 100 µM, the TGI [48] was over 100 µM and the GI50 [49] was over 100 µM. The TGI [49] was over 100 µM, the GI50 [50] was over 100 µM and the TGI [50] was over 100 µM. It also gave a GI50 [51] of 82.3 µM, a TGI [51] of over 100 µM and a GI50 [52] of over 100 µM. It also gave a TGI [52] of over 100 µM.

COc1ccc2c(c1)nc1n2C(c2ccc(F)cc2)SC1 (configuration not stated) was tested, and the GI50 [1] was 79.7 µM, the TGI [1] was over 100 µM and the GI50 [2] was 27.9 µM. For the same molecule, the TGI [2] was over 100 µM, the GI50 [3] was 18.5 µM and the TGI [3] was over 100 µM. It also gave a GI50 [4] of 60.8 µM, a TGI [4] of over 100 µM and a GI50 [5] of 18.1 µM. It also gave a TGI [5] of 66.3 µM, a GI50 [6] of 18.9 µM and a TGI [6] of over 100 µM. For the same molecule, the GI50 [7] was 14.8 µM, the TGI [7] was 66.3 µM and the GI50 [8] was 27.1 µM. It also gave a TGI [8] of over 100 µM, a GI50 [9] of 20.7 µM and a TGI [9] of 45.8 µM. It also gave a GI50 [10] of 15.4 µM, a TGI [10] of 28.7 µM and a GI50 [53] of 25.6 µM. The TGI [53] was over 100 µM, the GI50 [54] was 23.5 µM and the TGI [54] was 63 µM. The GI50 [11] was 24.8 µM, the TGI [11] was 61 µM and the GI50 [12] was 16.1 µM. For the same molecule, the TGI [12] was 67.7 µM, the GI50 [13] was 20.8 µM and the TGI [13] was 47.3 µM. For the same molecule, the GI50 [55] was 25.9 µM, the TGI [55] was over 100 µM and the GI50 [14] was 28.4 µM. The TGI [14] was over 100 µM, the GI50 [56] was 33.8 µM and the TGI [56] was over 100 µM. For the same molecule, the GI50 [16] was 26.5 µM, the TGI [16] was 99.4 µM and the GI50 [17] was 19.7 µM. The TGI [17] was 42.8 µM, the GI50 [18] was 16.6 µM and the TGI [18] was 34.9 µM. For the same molecule, the GI50 [19] was 20.4 µM, the TGI [19] was 65 µM and the GI50 [20] was 16 µM. It also gave a TGI [20] of 37.4 µM, a GI50 [21] of 36.5 µM and a TGI [21] of over 100 µM. It also gave a GI50 [22] of 21.8 µM, a TGI [22] of 59.5 µM and a GI50 [23] of 17.2 µM. For the same molecule, the TGI [23] was 43.2 µM, the GI50 [24] was 22.8 µM and the TGI [24] was over 100 µM. It also gave a GI50 [25] of 26.2 µM, a TGI [25] of 74.5 µM and a GI50 [26] of 33.6 µM. For the same molecule, the TGI [26] was over 100 µM, the GI50 [28] was 42.3 µM and the TGI [28] was over 100 µM. For the same molecule, the GI50 [29] was 28.7 µM, the TGI [29] was over 100 µM and the GI50 [30] was 21.8 µM. It also gave a TGI [30] of 61.9 µM, a GI50 [31] of 17.1 µM and a TGI [31] of 42.1 µM. The GI50 [32] was 22.4 µM, the TGI [32] was over 100 µM and the GI50 [33] was 26.8 µM. The TGI [33] was over 100 µM, the GI50 [35] was 82.9 µM and the TGI [35] was over 100 µM. The GI50 [36] was 28.3 µM, the TGI [36] was 70.5 µM and the GI50 [37] was 26.3 µM. The TGI [37] was 83.5 µM, the GI50 [38] was 23.3 µM and the TGI [38] was 70.2 µM. It also gave a GI50 [39] of 15.2 µM, a TGI [39] of over 100 µM and a GI50 [40] of 19.1 µM. The TGI [40] was 54.1 µM, the GI50 [41] was 33.8 µM and the TGI [41] was over 100 µM. For the same molecule, the GI50 [42] was 30.8 µM, the TGI [42] was over 100 µM and the GI50 [43] was 27.9 µM. For the same molecule, the TGI [43] was 83.7 µM, the GI50 [44] was 23.5 µM and the TGI [44] was 67.9 µM. For the same molecule, the GI50 [45] was 32.2 µM, the TGI [45] was over 100 µM and the GI50 [46] was 23 µM. The TGI [46] was over 100 µM, the GI50 [47] was 22.6 µM and the TGI [47] was 65.4 µM. For the same molecule, the GI50 [49] was 14.4 µM, the TGI [49] was 51 µM and the GI50 [50] was 32.3 µM. It also gave a TGI [50] of over 100 µM, a GI50 [51] of 25.4 µM and a TGI [51] of over 100 µM. For the same molecule, the GI50 [52] was 18.4 µM and the TGI [52] was 57.1 µM.

— PubChem BioAssay (NCI)
